Results published in patent US6699889B2, “Use of glucose uptake enhancer for reducing post-ischemic injury of the heart” (SmithKline Beecham p.l.c., priority 1998, dated 2004).

Legend:
[1] = tested on: isolated working hearts from male Wistar rats; experiment: Isolated working hearts from normal male Wistar rats: baseline ventricular function and recovery after 30 min zero-flow ischaemia and re-perfusion; conditions: normal rat hearts
Procedure: (§1) A solution of streptozotocin (STZ commercially available) was prepared in citrate buffer (40 mg/ml).
An acclimatisation period of at least one week was allowed prior to experiment.
(§2) Perfusion of isolated hearts: Rats were anaesthetized using thiopental sodium (50 mg/kg body weight intraperitoneally). Hearts from normoglycaemic and one-month STZ-induced diabetic rats, were quickly removed and immersed in ice-cold buffer to produce an immediate cessation of contractility. The aorta was dissected free and then mounted onto a cannula attached to a perfusion apparatus. Retrograde perfusion of the heart was started for 10 min by the Langendorff method and then switched to perfusion using the working-heart technique. […] The perfusate was not recirculated. Preload was held at a pressure of 15 cm H2O and afterload, as well as coronary perfusion pressure, were kept constant at 80 cm H2O.
Stroke volume (ml/beat) was derived by dividing cardiac output by heart rate.
Induction of global ischaemia and re-perfusion: Total ischaemia was initiated by clamping the left atrium and the aortic perfusion tubes and reducing coronary flow to zero for 30 minutes. The hearts were then re-perfused at 37° C. in working heart mode and recovery of ventricular function was followed for 30 minutes.
(§3) Statistical significance of differences was determined using Student's t-test.

[2] = tested on: isolated working hearts from STZ-diabetic rats; experiment: Isolated working hearts from STZ-diabetic male Wistar rats: baseline ventricular function and zero-flow ischaemia and re-perfusion; conditions: diabetic rat hearts
Procedure: as §1
The development of diabetes and its persistence were monitored by serial quantitative measurements of glucose in the urine with reagent strips. On the day of the experiment, the severity of diabetes was assessed by measuring glucose concentrations from blood samples collected at the time of heart excision. Only rats with plasma glucose levels exceeding 20 mM were considered diabetic and included in these experiments.
as §2
Stroke volume (ml/beat) was derived by dividing cardiac output by heart rate. […]
as §3

With CN(CCOc1ccc(CC2SC(=O)NC2=O)cc1)c1ccccn1 (centres unmarked) [Compound (I), 5-[4-[2-(N-methyl-N-(2-pyridyl)amino)ethoxy]benzyl]thiazolidine-2,4-dione] as the compound, how does the “Protective properties in hearts subjected to zero-flow ischaemia in vitro” value [1] read?
The value was “protective properties of rapid onset”.

What about the “Protective properties in hearts subjected to zero-flow ischaemia in vitro” value [2] of the same compound?
The value was “protective properties of rapid onset”.
